From patent publication US8835632B2, “Methods to increase the photostability of dyes” (The University of North Carolina at Chapel Hill, priority 2007, dated 2014)

Key:
[1] = Methylene Blue-sensitized photobleaching (reactivity of the dyes with singlet oxygen); format: physicochemical; conditions: methanol, [dye]=[Methylene Blue]=3.33 μM, filtered light λ>630 nm, 40 min
Description: The reactivity of the dyes with singlet oxygen also was examined to confirm that the cyano substituent group affected photobleaching mediated by singlet oxygen. Singlet oxygen was generated using the photosensitizer Methylene Blue (MB), which has a high quantum yield for singlet oxygen production and allows singlet oxygen to be introduced into the system without excitation of the merocyanine dye. See Murov and Carmichael, Handbook of Photochemistry, 2nd ed.; Dekker: New York (1993).
15 mL of a methanol solution containing dye (3.33 μM) and Methylene Blue (3.33 μM) were placed in a 20-mL Borosilicate Glass Scintillation Vial (Fisher Scientific). The vial was illuminated with the light of a 90 W halogen reflector lamp (120 V, 1280 Lumens, 12 Degree Beam Spread). […] The length of the filtering solution was 1.0 cm. The distance between the vial and the lamp was 11.0 cm. A fan (120 V, 150 mm)) was used to cool the vial. At selected time intervals a sample was removed and the sample absorbance spectrum was obtained on a Hewlett-Packard 8453 diode array spectrophotometer (Agilent, Technologies, Inc.). Rate constants of dye photobleaching were obtained from a plot of ln(A) vs. time (see Table 5).
Again, without wishing to be bound to any one particular theory, the greater reactivity of S-SO vs. I-SO toward singlet oxygen can be attributed to the greater electron donating capacity of the benzothiazole moiety relative to the indolenine ring system.

[2] = Absorption and fluorescence spectra, extinction coefficient, fluorescence quantum yield; format: physicochemical
Description: Absorption spectra were recorded on a Hewlett-Packard 8453 diode array UV-Vis spectrophotometer (Agilent Technologies, Inc., Santa Clara, Calif.), and fluorescence measurements were taken on a SPEX® Fluorolog 2 spectrofluorometer (HORIBA Jobin Yvon, Inc., Edison, N.J.). Melting points are not corrected. NMR spectra were obtained on a Varian Mercury 300 MHz (Varian, Inc., Palo Alto, Calif.) or on a Bruker 300 MHz DRX 300 spectrometer (Bruker Biospin Corp., Billerica, Mass.). Mass spectra were obtained on a Hewlett-Packard 1100 high-performance liquid chromatograph equipped with an 1100 mass selective detector (MS-ESI) (Agilent Technologies, Inc.).
With decreasing solvent polarity, the absorption maximum of dyes 1a-b, 2a-d shifted to longer wavelengths, and the intensity of the transition increased (Table 10, FIG. 11).
The SCRF/VSCRF predicted emission energies and the solute dipole moments before and after the vertical emission process are given in Table 16. The dipole moments of AI-BA(4) and AI-SO(4) are further decreased on the S1 surface after geometry relaxation (in MeOH solution), and then increased during the S1→S0 transition. This observation is consistent with the blue shifts of the emission bands of AI-BA(4) and AI-SO(4) with increasing solvent polarity from C6H6 to MeOH. By contrast, the dipole moment of I-SO further decreases after S1 state geometry relaxation, and then decreases during the vertical emission process. This observation also is in agreement with the red shift of the I-SO emission band with increasing solvent polarity from C6H6 to MeOH. Similarly to the absorption case, a negligible red shift (ΔEem=0.017 eV) was predicted for the emission band of I-TBA with increasing solvent polarity. A small red shift from C6H6 to DMF (with ΔEem=0.020 eV, or Δλmax=6 nm) is observed. The nearly equal emission energy observed in C6H6 and MeOH can again result in the explicit interactions between the solute and solvent molecules.

[3] = from C6H6 to MeOH; cited from earlier work

Structure (SMILES) | Bleaching on irradiation of Methylene Blue [1] | Absorbance λmax ([2]; Butanol (BuOH)) | Emission λmax ([2]; Butanol (BuOH)) | Extinction coefficient ε ([2]; Butanol (BuOH)) | Fluorescence quantum yield Φ ([2]; Butanol (BuOH)) | Absorbance λmax ([2]; Methanol (MeOH)) | Emission λmax ([2]; Methanol (MeOH)) | Extinction coefficient ε ([2]; Methanol (MeOH)) | Fluorescence quantum yield Φ ([2]; Methanol (MeOH)) | Absorption wavelength shift [3] | Emission wavelength shift [3] | Suppression of extinction coefficient by introduction of the cyano-group ([2]; in methanol)
CN1/C(=C(C#N)/C=C/C=C2/C(=O)c3ccccc3S2(=O)=O)C(C)(C)c2ccccc21 [I-SO-CN, (2Z,3E,5Z)-5-(1,1-dioxido-3-oxo-1-benzothiophen-2(3H)-ylidene)-2-(1,3,3-trimethyl-1,3-dihydro-2H-indol-2-ylidene)pent-3-enenitrile] | 0% | 527 nm | 594 nm | 56000 | 0.04 | 528 nm | 595 nm | 55000 | 0.03 | – | – | –
CCN1C(=O)\C(=C/C=C/C=C2\Sc3ccccc3N2CC)C(O)N(CC)C1=S (stereo not drawn) [S-TBA] | – | – | – | – | – | – | – | – | – | 17 nm | 11 nm | –
CCN1/C(=C/C=C/C=C2/C(=O)c3ccccc3S2(=O)=O)Sc2ccccc21 [S-SO, (2Z)-2-[(2E,4Z)-4-(3-ethyl-1,3-benzothiazol-2(3H)-ylidene)but-2-en-1-ylidene]-1-benzothiophen-3(2H)-one 1,1-dioxide, reference compound] | 43% | 604 nm | 622 nm | 163000 | 0.12 | 598 nm | 617 nm | 143000 | 0.05 | – | – | 34%
